Laboratory results: PubChem BioAssay (NCI)
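Test compounds were applied to cells in 96-well plates for 48 hours at 5 doses. GI50 is the concentration that inhibits growth by half. TGI marks complete inhibition of growth.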

Experiments:
Experiment in all cases: NCI tumour cell line growth inhibition, 48 h
M14 melanoma = system: M14 melanoma
NCI-H460 lung = system: NCI-H460 lung
A549 NSCLC = system: A549 NSCLC
OVCAR-5 ovarian = system: OVCAR-5 ovarian
SK-MEL-5 melanoma = system: SK-MEL-5 melanoma
SF-295 CNS = system: SF-295 CNS
PC-3 prostate = system: PC-3 prostate
MDA-N = system: MDA-N
BT-549 breast = system: BT-549 breast
MDA-MB-435 = system: MDA-MB-435

SMILES | TGI (M14 melanoma) | TGI (NCI-H460 lung) | TGI (A549 NSCLC) | TGI (OVCAR-5 ovarian) | TGI (SK-MEL-5 melanoma) | TGI (SF-295 CNS) | TGI (PC-3 prostate) | TGI (MDA-N) | TGI (BT-549 breast) | TGI (MDA-MB-435) | GI50 (M14 melanoma) | GI50 (NCI-H460 lung) | GI50 (PC-3 prostate) | GI50 (A549 NSCLC) | GI50 (BT-549 breast) | GI50 (OVCAR-5 ovarian) | GI50 (SK-MEL-5 melanoma) | GI50 (MDA-MB-435) | GI50 (SF-295 CNS)
c1ccc(OCCSCCCCCCCCCCSCCOc2ccccc2)cc1 | > 100 µM | > 100 µM | > 100 µM | > 100 µM | > 100 µM | > 100 µM |  |  |  |  |  |  |  |  |  |  |  |  | 
O=P(O)(O)CN1CCNCCN(CP(=O)(O)O)CCNCC1 | > 100 µM | 13.1 µM | > 100 µM | > 100 µM | > 42 µM | > 100 µM | > 100 µM | > 100 µM | > 100 µM | > 100 µM |  |  |  |  |  |  |  |  | 
COc1cc(-n2cc(-c3cc(O)c(C/C=C(\C)CCC=C(C)C)c(O)c3)nn2)cc2c1O[C@]1(C)CC[C@@H](O)C(C)(C)[C@H]1C2 | 31 µM | 14.9 µM | 20.7 µM | 21.5 µM | 5.77 µM | 0.122 µM | > 84.3 µM |  | 20.5 µM | 27.6 µM | 787 nM | 1130 nM | 598 nM | 1120 nM | 974 nM | 2.35 µM | 1.33 µM | 1220 nM | 28 nM
O=c1oc2ccc(Cl)cc2cc1-c1cn2ccsc2n1 | > 100 µM | > 100 µM | > 100 µM |  | > 100 µM | > 100 µM | > 100 µM | > 100 µM | 70.3 µM | > 100 µM |  |  |  |  |  |  |  |  | 
Nc1ncc(/C=N/O)c(NCC2(CO)CC(CCc3ccccc3)C2)n1 (stereo not given) |  | 22.1 µM | 25.6 µM | 44.1 µM | 11.9 µM | 22.7 µM | 26.8 µM |  |  | 23.8 µM |  |  |  |  |  |  |  |  | 
O=CNNC(=O)Nc1ccc(Cl)cc1 | > 100 µM |  | > 100 µM | > 100 µM | > 100 µM | > 100 µM |  |  |  | > 100 µM |  |  |  |  |  |  |  |  | 
COC(=O)/C=C/c1ccc2c(c1)CC1(Cc3ccccc3C1)C2 | > 100 µM |  | > 100 µM | > 100 µM | > 100 µM | > 100 µM | > 100 µM | > 100 µM |  | > 100 µM |  |  |  |  |  |  |  |  | 
Cc1cn([C@H]2[C@@H](CO)C[C@H]2O)c(=O)[nH]c1=O |  | > 100 µM | > 100 µM | > 100 µM | > 100 µM | > 100 µM | > 100 µM | > 100 µM | > 100 µM | > 100 µM |  |  |  |  |  |  |  |  | 
O=S1(=O)OCCOS(=O)(=O)C1Cc1nc2ccccc2[nH]1 | > 100 µM | > 100 µM | > 100 µM | > 100 µM | > 100 µM | > 100 µM | 73.4 µM | > 100 µM |  | > 100 µM |  |  |  |  |  |  |  |  | 
O=C1CSC2(CC(/C=C/c3ccccc3Br)=NN2c2cccc(S(=O)(=O)O)c2)N1c1nc2ccccc2s1 (stereo not given) | > 100 µM | > 100 µM | > 100 µM | > 100 µM | > 100 µM |  | > 100 µM | > 100 µM | > 100 µM | > 100 µM |  |  |  |  |  |  |  |  | 
Oc1[nH]c2ccccc2c1/C=c1/cc2c(c(-c3ccc(C(F)(F)F)cc3)n1)=Nc1ccccc1-2 | 17.4 µM | 10.5 µM | 28.8 µM | 33.8 µM | 19.3 µM | 28.4 µM | 47.4 µM |  | 15.7 µM | 10 µM | 3890 nM | 2560 nM | 2590 nM | 4790 nM | 4170 nM | 11.8 µM | 5.28 µM | 403 nM | 2990 nM
O=C(c1ccco1)C1CC(c2ccc3ccccc3c2O)=NN1c1ccc([N+](=O)[O-])cc1[N+](=O)[O-] (stereo not given) | > 100 µM | 33.9 µM | > 100 µM | > 100 µM |  | > 100 µM | > 100 µM | > 100 µM | > 100 µM | > 100 µM |  |  |  |  |  |  |  |  | 
CC(=O)c1ccc(NC(=O)CSc2nc(C)nc3c2sc(=S)n3-c2ccccc2)cc1 | > 3.16 µM | > 3.16 µM | > 3.16 µM | > 3.16 µM | > 3.16 µM | > 3.16 µM |  | > 3.16 µM |  | > 3.16 µM |  |  |  |  |  |  |  |  | 
CCOC(=O)CCCn1cc(C(=O)OC)nn1 |  | > 100 µM | > 100 µM |  | > 100 µM | > 100 µM | > 100 µM | > 100 µM | > 100 µM | > 100 µM |  |  |  |  |  |  |  |  | 
Cc1cc(=O)[nH]c(NNC(C#N)c2ccc([N+](=O)[O-])cc2)n1 (stereo not given) | > 100 µM | > 100 µM | > 100 µM | > 100 µM | > 100 µM | > 100 µM |  |  |  |  |  |  |  |  |  |  |  |  | 
O=C1CC2(CCNCC2)C(=O)N1N1CCOCC1 | > 100 µM | > 100 µM | > 100 µM | > 100 µM | > 100 µM | > 100 µM | > 100 µM | > 100 µM | > 100 µM |  |  |  |  |  |  |  |  |  | 
CC(C)(C)OC(=O)N1CCc2c(n(C/C=C/c3ccccc3)[nH]c2=O)C1 | > 100 µM | > 100 µM | > 100 µM |  | > 100 µM | > 100 µM | > 100 µM | > 100 µM | > 100 µM | > 100 µM |  |  |  |  |  |  |  |  | 
C=C[C@@](C)(/C=C/c1ccc(O)cc1)CCC=C(C)C | 35.3 µM | 29.2 µM | 35.1 µM | 33.5 µM | 30.7 µM | 34.4 µM | 30.4 µM | 31 µM |  | 33.9 µM |  |  |  |  |  |  |  |  | 
Nc1c(N=Nc2ccc(-c3ccc(N=Nc4c(O)ccc5cc(S(=O)(=O)O)cc(S(=O)(=O)O)c45)cc3)cc2)c(S(=O)(=O)O)cc2cc(S(=O)(=O)O)c(N=Nc3ccccc3)c(O)c12 |  | > 100 µM | > 100 µM | > 100 µM | > 100 µM | > 100 µM |  |  |  |  |  |  |  |  |  |  |  |  | 
COc1cccc(CN(C(=O)/C=C\Sc2ccccc2)C(C)(C)C)c1 | > 100 µM |  | > 100 µM | > 100 µM | > 100 µM | > 100 µM | > 100 µM | > 100 µM | > 100 µM | > 100 µM |  |  |  |  |  |  |  |  | 
N#CCCC1(CCC#N)CCCCCCC(CCC#N)(CCC#N)C(O)C1O (stereo not given) | > 100 µM | > 100 µM | > 100 µM | > 100 µM | > 100 µM | > 100 µM | > 100 µM | > 100 µM |  | > 100 µM |  |  |  |  |  |  |  |  | 
CC(=O)Nc1ccc(C(=O)N2N=C(C)/C(=C/c3ccc(O)cc3)C2=O)cc1 |  | > 100 µM | > 100 µM | > 100 µM | > 100 µM | > 100 µM |  |  |  |  |  |  |  |  |  |  |  |  | 
